Holding throughout (test): cell-based
One assay addresses hNav1.7 (Homo sapiens, UniProt Q15858). It counts as cell-based. The settings on record: IonWorks Quattro, Use; read-out: IWQ Use Nav1.7.
In the next assay the target is hNav1.5 (Homo sapiens, UniProt Q14524). The settings on record: for pIC50: IonWorks Quattro, Use, read-out: IWQ Use Nav1.5.
The target in another assay is hNav1.3 (Homo sapiens, UniProt Q9NY46). To be noted: IonWorks Quattro, Use; read-out: IWQ Use Nav1.3.

Molecules are shown by their SMILES. pIC50: −log10 of the molar value. Read-outs that look alike come from different tables or passages of the source. Positions of bridges follow the written chain, without caps; N, C: chain ends. Residues, ends and D or L forms follow the SMILES beside them.

hNav1.7, sequence (Q15858 whole entry, looked up): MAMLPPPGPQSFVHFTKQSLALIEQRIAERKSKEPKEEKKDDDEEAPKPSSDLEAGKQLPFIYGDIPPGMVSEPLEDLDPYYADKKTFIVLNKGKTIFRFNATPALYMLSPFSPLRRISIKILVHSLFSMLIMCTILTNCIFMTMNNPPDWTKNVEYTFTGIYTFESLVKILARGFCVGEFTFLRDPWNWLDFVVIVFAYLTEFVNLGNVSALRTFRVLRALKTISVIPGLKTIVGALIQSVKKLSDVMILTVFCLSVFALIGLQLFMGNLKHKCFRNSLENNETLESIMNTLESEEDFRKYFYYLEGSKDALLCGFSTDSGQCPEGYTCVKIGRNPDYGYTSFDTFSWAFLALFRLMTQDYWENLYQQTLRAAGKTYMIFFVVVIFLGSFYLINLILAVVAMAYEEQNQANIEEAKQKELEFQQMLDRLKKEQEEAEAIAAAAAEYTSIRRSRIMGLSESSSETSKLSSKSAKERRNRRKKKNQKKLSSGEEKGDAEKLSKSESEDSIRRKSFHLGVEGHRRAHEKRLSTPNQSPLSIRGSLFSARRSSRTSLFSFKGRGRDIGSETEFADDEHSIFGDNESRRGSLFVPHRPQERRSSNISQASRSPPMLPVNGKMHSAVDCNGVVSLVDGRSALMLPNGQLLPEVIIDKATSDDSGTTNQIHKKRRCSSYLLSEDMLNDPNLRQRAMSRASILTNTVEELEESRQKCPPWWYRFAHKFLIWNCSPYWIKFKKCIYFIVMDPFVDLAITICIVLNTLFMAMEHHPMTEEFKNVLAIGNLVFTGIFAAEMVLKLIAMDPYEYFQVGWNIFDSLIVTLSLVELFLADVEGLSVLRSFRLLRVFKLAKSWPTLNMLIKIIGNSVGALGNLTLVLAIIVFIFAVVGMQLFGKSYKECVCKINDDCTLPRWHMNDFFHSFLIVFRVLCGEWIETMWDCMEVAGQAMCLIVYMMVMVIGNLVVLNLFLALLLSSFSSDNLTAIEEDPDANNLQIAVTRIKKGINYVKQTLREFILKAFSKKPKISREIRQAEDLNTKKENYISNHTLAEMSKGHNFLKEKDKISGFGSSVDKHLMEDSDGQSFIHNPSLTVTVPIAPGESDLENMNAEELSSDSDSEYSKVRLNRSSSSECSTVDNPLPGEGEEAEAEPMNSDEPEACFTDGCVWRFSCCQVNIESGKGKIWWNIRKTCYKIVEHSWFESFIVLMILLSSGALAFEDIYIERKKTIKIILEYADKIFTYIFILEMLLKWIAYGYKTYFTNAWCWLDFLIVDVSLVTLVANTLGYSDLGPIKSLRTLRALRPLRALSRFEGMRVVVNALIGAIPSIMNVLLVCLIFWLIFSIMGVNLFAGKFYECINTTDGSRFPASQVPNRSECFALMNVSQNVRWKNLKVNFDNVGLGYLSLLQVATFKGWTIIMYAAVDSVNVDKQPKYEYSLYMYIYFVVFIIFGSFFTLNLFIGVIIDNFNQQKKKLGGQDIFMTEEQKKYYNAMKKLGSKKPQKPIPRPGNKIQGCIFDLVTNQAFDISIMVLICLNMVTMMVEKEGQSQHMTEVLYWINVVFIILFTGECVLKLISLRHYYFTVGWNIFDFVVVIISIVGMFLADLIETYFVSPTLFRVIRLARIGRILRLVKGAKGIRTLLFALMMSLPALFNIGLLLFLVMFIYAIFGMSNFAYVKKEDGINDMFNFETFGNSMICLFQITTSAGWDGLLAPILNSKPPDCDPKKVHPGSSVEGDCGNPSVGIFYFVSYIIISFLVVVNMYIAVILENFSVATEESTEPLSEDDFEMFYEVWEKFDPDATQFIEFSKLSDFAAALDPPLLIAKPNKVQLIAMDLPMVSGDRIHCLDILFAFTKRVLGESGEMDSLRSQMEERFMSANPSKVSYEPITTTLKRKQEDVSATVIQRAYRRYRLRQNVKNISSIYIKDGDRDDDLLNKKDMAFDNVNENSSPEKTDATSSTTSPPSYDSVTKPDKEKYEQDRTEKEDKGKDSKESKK
hNav1.3, sequence (Q9NY46 whole entry, looked up): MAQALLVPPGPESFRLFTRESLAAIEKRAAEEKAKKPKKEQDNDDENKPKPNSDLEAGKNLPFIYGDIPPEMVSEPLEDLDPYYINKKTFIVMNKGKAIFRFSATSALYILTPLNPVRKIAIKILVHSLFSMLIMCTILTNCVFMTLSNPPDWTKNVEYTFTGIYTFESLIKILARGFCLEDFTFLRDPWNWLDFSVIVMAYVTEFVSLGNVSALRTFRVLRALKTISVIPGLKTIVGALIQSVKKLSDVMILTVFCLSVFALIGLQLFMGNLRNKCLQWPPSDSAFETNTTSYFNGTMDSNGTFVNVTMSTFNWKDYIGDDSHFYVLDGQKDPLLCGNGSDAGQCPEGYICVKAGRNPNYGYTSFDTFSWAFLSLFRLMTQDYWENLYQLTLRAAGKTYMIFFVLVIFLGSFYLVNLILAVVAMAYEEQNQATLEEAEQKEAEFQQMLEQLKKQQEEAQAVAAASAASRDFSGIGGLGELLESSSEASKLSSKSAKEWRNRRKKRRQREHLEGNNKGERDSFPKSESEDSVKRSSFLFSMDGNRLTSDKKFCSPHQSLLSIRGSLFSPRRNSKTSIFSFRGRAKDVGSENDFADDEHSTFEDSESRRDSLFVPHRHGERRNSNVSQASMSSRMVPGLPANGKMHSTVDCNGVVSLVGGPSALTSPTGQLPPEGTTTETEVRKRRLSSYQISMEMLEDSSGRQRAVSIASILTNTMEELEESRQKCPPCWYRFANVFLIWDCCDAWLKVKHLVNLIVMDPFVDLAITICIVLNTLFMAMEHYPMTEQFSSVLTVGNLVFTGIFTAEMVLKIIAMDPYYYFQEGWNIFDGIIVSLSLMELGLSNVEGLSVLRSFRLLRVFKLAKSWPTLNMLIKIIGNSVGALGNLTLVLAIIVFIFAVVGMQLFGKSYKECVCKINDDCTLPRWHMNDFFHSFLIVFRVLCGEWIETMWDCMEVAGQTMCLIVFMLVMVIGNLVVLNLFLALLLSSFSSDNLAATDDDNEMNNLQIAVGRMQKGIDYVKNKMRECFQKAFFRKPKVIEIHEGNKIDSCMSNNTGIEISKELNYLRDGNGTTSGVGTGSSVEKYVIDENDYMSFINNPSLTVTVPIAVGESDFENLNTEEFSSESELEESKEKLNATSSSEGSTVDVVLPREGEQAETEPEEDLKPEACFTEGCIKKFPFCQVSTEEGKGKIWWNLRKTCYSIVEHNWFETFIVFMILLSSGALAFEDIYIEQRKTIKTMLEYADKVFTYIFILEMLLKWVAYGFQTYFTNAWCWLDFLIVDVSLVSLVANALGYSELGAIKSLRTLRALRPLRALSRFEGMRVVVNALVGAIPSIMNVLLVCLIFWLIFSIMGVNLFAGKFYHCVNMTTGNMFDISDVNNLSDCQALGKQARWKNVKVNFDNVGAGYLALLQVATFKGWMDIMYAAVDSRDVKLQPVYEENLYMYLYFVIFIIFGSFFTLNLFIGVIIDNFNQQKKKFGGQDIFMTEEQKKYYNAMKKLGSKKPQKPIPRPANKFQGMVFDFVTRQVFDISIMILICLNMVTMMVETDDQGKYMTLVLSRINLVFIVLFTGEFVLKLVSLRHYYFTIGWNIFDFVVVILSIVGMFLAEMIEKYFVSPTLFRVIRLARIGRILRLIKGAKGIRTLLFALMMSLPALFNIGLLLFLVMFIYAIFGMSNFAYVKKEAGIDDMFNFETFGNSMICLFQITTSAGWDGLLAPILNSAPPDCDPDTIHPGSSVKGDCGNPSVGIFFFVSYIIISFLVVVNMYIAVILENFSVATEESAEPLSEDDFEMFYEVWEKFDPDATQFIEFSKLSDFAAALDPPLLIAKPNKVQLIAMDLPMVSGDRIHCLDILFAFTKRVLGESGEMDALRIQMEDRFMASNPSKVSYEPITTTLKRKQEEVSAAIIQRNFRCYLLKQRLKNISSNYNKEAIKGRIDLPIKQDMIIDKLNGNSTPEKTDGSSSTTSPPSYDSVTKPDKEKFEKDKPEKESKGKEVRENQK

`CC[C@H](C)[C@@H]1NC(=O)[C@@H]2CSSC[C@@H]3NC(=O)[C@H](Cc4ccccc4)NC(=O)[C@H](CC(C)C)NC(=O)[C@H](CC(N)=O)NC(=O)[C@@H]4CCCN4C(=O)[C@H](CCCNC(=N)N)NC(=O)[C@H](CSSC[C@H](NC(=O)[C@@H](N)CC(=O)O)C(=O)N[C@@H](CC(C)C)C(=O)NCC(=O)N[C@@H](Cc4ccccc4)C(=O)N[C@@H](CCSC)C(=O)N[C@@H](CCCNC(=N)N)C(=O)N[C@@H](CCCCN)C(=O)N2)NC(=O)[C@H](CSSC[C@@H](C(=O)N[C@@H](CCCCN)C(=O)N[C@@H](Cc2ccc(O)cc2)C(=O)N[C@H](C(=O)N[C@@H](Cc2ccccc2)C(N)=O)C(C)C)NC(=O)[C@H](Cc2c[nH]c4ccccc24)NC(=O)[C@H](CCCCN)NC(=O)[C@H](Cc2c[nH]cn2)NC(=O)[C@H]([C@@H](C)O)NC(=O)[C@H](CCCNC(=N)N)NC(=O)[C@H](CO)NC3=O)NC(=O)[C@H](CCCCN)NC(=O)[C@H](CC(=O)O)NC(=O)[C@H](CC(N)=O)NC(=O)[C@H](CC(=O)O)NC(=O)[C@@H]2CCCN2C1=O` [compound 319] (H-DCLGFMRKCIPDNDKCCRPNLFCSRTHKWCKYVF-NH2; disulfide 2-17, 9-23, 16-30): the pIC50 was 6.15 at hNav1.7 and 5.99 on hNav1.3. For the same molecule, the IC50 against hNav1.5 (IWQ Use Nav1.5 (μM)) is over 5 µM.
In the case of `CC[C@H](C)[C@@H]1NC(=O)[C@@H]2CSSC[C@@H]3NC(=O)[C@@H]4CCCN4C(=O)[C@H](CC(C)C)NC(=O)[C@H](CC(N)=O)NC(=O)[C@@H]4CCCN4C(=O)[C@H](CCCNC(=N)N)NC(=O)[C@H](CSSC[C@H](NC(=O)[C@@H](N)CC(=O)O)C(=O)N[C@@H](CC(C)C)C(=O)NCC(=O)N[C@@H](Cc4ccccc4)C(=O)N[C@@H](CCSC)C(=O)N[C@@H](CCCNC(=N)N)C(=O)N[C@@H](CCCCN)C(=O)N2)NC(=O)[C@H](CSSC[C@@H](C(=O)N[C@@H](CCCCN)C(=O)N[C@@H](Cc2ccc(O)cc2)C(=O)N[C@H](C(=O)N[C@@H](Cc2ccccc2)C(N)=O)C(C)C)NC(=O)[C@H](Cc2c[nH]c4ccccc24)NC(=O)[C@H](CCCCN)NC(=O)[C@H](Cc2c[nH]cn2)NC(=O)[C@H]([C@@H](C)O)NC(=O)[C@H](CCCNC(=N)N)NC(=O)[C@H](CO)NC3=O)NC(=O)[C@H](CCCCN)NC(=O)[C@H](CC(=O)O)NC(=O)[C@H](CC(N)=O)NC(=O)[C@H](CC(=O)O)NC(=O)[C@@H]2CCCN2C1=O` [compound 320] (H-DCLGFMRKCIPDNDKCCRPNLPCSRTHKWCKYVF-NH2; disulfide 2-17, 9-23, 16-30), the pIC50 on hNav1.7, on hNav1.5 and on hNav1.3 was under 5.30 throughout.
With `CC[C@H](C)[C@@H]1NC(=O)[C@H](CC(C)C)NC(=O)[C@H](CC(N)=O)NC(=O)[C@@H]2CCCN2C(=O)[C@H](CCCNC(=N)N)NC(=O)[C@@H]2CSSC[C@H](NC(=O)[C@@H](N)CC(=O)O)C(=O)N[C@@H](CC(C)C)C(=O)NCC(=O)N[C@@H](Cc3ccccc3)C(=O)N[C@@H](CCSC)C(=O)N[C@@H](CCCNC(=N)N)C(=O)N[C@@H](CCCCN)C(=O)N[C@H]3CSSC[C@H](NC1=O)C(=O)N[C@@H](CO)C(=O)N[C@@H](CCCNC(=N)N)C(=O)N[C@@H]([C@@H](C)O)C(=O)N[C@@H](Cc1c[nH]cn1)C(=O)N[C@@H](CCCCN)C(=O)N[C@@H](Cc1c[nH]c4ccccc14)C(=O)N[C@H](C(=O)N[C@@H](CCCCN)C(=O)N[C@@H](Cc1ccc(O)cc1)C(=O)N[C@H](C(=O)N[C@@H](Cc1ccccc1)C(N)=O)C(C)C)CSSC[C@H](NC(=O)[C@H](CCCCN)NC(=O)[C@H](CC(=O)O)NC(=O)[C@H](CC(N)=O)NC(=O)[C@H](CC(=O)O)NC(=O)[C@@H]1CCCN1C(=O)[C@H]([C@@H](C)CC)NC3=O)C(=O)N2` [compound 321] (H-DCLGFMRKCIPDNDKCCRPNLICSRTHKWCKYVF-NH2; disulfide 2-17, 9-23, 16-30), the pIC50 is 7.10 on hNav1.7, 4.94 on hNav1.5 and 7.15 on hNav1.3.
Regarding `CC[C@H](C)[C@@H]1NC(=O)[C@@H]2CSSC[C@@H]3NC(=O)[C@H](CC(C)C)NC(=O)[C@H](CC(C)C)NC(=O)[C@H](CC(N)=O)NC(=O)[C@@H]4CCCN4C(=O)[C@H](CCCNC(=N)N)NC(=O)[C@H](CSSC[C@H](NC(=O)[C@@H](N)CC(=O)O)C(=O)N[C@@H](CC(C)C)C(=O)NCC(=O)N[C@@H](Cc4ccccc4)C(=O)N[C@@H](CCSC)C(=O)N[C@@H](CCCNC(=N)N)C(=O)N[C@@H](CCCCN)C(=O)N2)NC(=O)[C@H](CSSC[C@@H](C(=O)N[C@@H](CCCCN)C(=O)N[C@@H](Cc2ccc(O)cc2)C(=O)N[C@H](C(=O)N[C@@H](Cc2ccccc2)C(N)=O)C(C)C)NC(=O)[C@H](Cc2c[nH]c4ccccc24)NC(=O)[C@H](CCCCN)NC(=O)[C@H](Cc2c[nH]cn2)NC(=O)[C@H]([C@@H](C)O)NC(=O)[C@H](CCCNC(=N)N)NC(=O)[C@H](CO)NC3=O)NC(=O)[C@H](CCCCN)NC(=O)[C@H](CC(=O)O)NC(=O)[C@H](CC(N)=O)NC(=O)[C@H](CC(=O)O)NC(=O)[C@@H]2CCCN2C1=O` [compound 322] (H-DCLGFMRKCIPDNDKCCRPNLLCSRTHKWCKYVF-NH2; disulfide 2-17, 9-23, 16-30), the pIC50 was 7.05 on hNav1.7, 5.02 at hNav1.5 and 7.15 at hNav1.3.
For `CC[C@H](C)[C@@H]1NC(=O)[C@@H]2CSSC[C@@H]3NC(=O)[C@H](CO)NC(=O)[C@H](CC(C)C)NC(=O)[C@H](CC(N)=O)NC(=O)[C@@H]4CCCN4C(=O)[C@H](CCCNC(=N)N)NC(=O)[C@H](CSSC[C@H](NC(=O)[C@@H](N)CC(=O)O)C(=O)N[C@@H](CC(C)C)C(=O)NCC(=O)N[C@@H](Cc4ccccc4)C(=O)N[C@@H](CCSC)C(=O)N[C@@H](CCCNC(=N)N)C(=O)N[C@@H](CCCCN)C(=O)N2)NC(=O)[C@H](CSSC[C@@H](C(=O)N[C@@H](CCCCN)C(=O)N[C@@H](Cc2ccc(O)cc2)C(=O)N[C@H](C(=O)N[C@@H](Cc2ccccc2)C(N)=O)C(C)C)NC(=O)[C@H](Cc2c[nH]c4ccccc24)NC(=O)[C@H](CCCCN)NC(=O)[C@H](Cc2c[nH]cn2)NC(=O)[C@H]([C@@H](C)O)NC(=O)[C@H](CCCNC(=N)N)NC(=O)[C@H](CO)NC3=O)NC(=O)[C@H](CCCCN)NC(=O)[C@H](CC(=O)O)NC(=O)[C@H](CC(N)=O)NC(=O)[C@H](CC(=O)O)NC(=O)[C@@H]2CCCN2C1=O` [compound 323] (H-DCLGFMRKCIPDNDKCCRPNLSCSRTHKWCKYVF-NH2; disulfide 2-17, 9-23, 16-30), the pIC50 at hNav1.7 was 7.00; at hNav1.5, 5.35; at hNav1.3, 7.05.
In the case of `CC[C@H](C)[C@@H]1NC(=O)[C@@H]2CSSC[C@@H]3NC(=O)CNC(=O)[C@H](CC(C)C)NC(=O)[C@H](CC(N)=O)NC(=O)[C@@H]4CCCN4C(=O)[C@H](CCCNC(=N)N)NC(=O)[C@H](CSSC[C@H](NC(=O)[C@@H](N)CC(=O)O)C(=O)N[C@@H](CC(C)C)C(=O)NCC(=O)N[C@@H](Cc4ccccc4)C(=O)N[C@@H](CCSC)C(=O)N[C@@H](CCCNC(=N)N)C(=O)N[C@@H](CCCCN)C(=O)N2)NC(=O)[C@H](CSSC[C@@H](C(=O)N[C@@H](CCCCN)C(=O)N[C@@H](Cc2ccc(O)cc2)C(=O)N[C@H](C(=O)N[C@@H](Cc2ccccc2)C(N)=O)C(C)C)NC(=O)[C@H](Cc2c[nH]c4ccccc24)NC(=O)[C@H](CCCCN)NC(=O)[C@H](Cc2c[nH]cn2)NC(=O)[C@H]([C@@H](C)O)NC(=O)[C@H](CCCNC(=N)N)NC(=O)[C@H](CO)NC3=O)NC(=O)[C@H](CCCCN)NC(=O)[C@H](CC(=O)O)NC(=O)[C@H](CC(N)=O)NC(=O)[C@H](CC(=O)O)NC(=O)[C@@H]2CCCN2C1=O` [compound 324] (H-DCLGFMRKCIPDNDKCCRPNLGCSRTHKWCKYVF-NH2; disulfide 2-17, 9-23, 16-30), the pIC50 at hNav1.7 is 6.85; on hNav1.5, 4.96; on hNav1.3, 7.00.

Values taken from US9340590B2 (priority 2011, dated 2016).
